Data reported in patent publication US20120255051A1, “HERBICIDE TOLERANT PLANTS” (priority 2009, published 2012).

Test system: Brassica plants comprising mutant AHAS alleles
Assay: Field trial, pre-planting treatment (0, 10, 20, 30 g a.i./ha), two locations in Canada: ERG, EST1, EST2, PPTOX, VIG1, VIG2, VIG3 scores
Assay type: in vivo, Brassica napus
From the text: Tests were set up and conducted to asses the growth and performance of plants comprising AHAS full knock-out alleles, and to further analyze the correlation between the presence of full knockout and missense AHAS genes in Brassica plants and plant growth and herbicide tolerance of the Brassica plants in the field. To this end, the Brassica plants identified in Example 1 and 2 were backcrossed two times with an elite parent line, and subsequently selfed twice to obtain homozygous plants (BC2S2). Plants were grown as row plots in a split plot design with three replicates (main plots=herbicide treatments, subplots=genotypes) at two locations in Canada. Treatment pre-planting was carried out on the soil about two days before sowing with a dose of 0 (treatment A), 10 (treatment B), 20 (treatment C) or 30 (treatment D) g a.i./ha of thiencarbazone methyl. Herbicide tolerance was measured by scoring for different parameters. The parameter emergence (ERG) was scored at the cotyledon stage on a scale 1-9, where 1 means late emergence and 9 means early emergence. Establishment was scored 14 days after sowing (EST1) and 21 days after sowing (EST2). Scores were from 1 to 9, where 1 is the worst establishment (least plants that emerged), and 9 is the best establishment (most plants emerged). Phytotoxicity (PPTOX) was determined after establishment. Plants were evaluated on a scale of 1 to 9, where 1=completely yellowing, 5=50% of plant is yellow and 9=no yellowing. The vigor scores (see above) were determined at 1-2 leaf stage (VIG1), 7 days after VIG1 (VIG2) and 14 days after VIG1 (VIG3). The average values (Av) and standard deviations (SD) of the scores for the different parameters are represented in Table 7a-g.
Further, the contribution of the knock-out allele to herbicide tolerance conferred by the missense allele was calculated. First, the scores were corrected for a possible effect of the growth per se, independent of herbicide treatment. To this end, the scores for treatments B, C and D were divided by the scores for treatment A for the same genotype and for the same parameter (corrected herbicide tolerance scores). Next, the effect of the knock-out allele to these corrected herbicide tolerance scores obtained by the missense allele was calculated. Therefore, the corrected herbicide tolerance scores for the missense—knock-out allele combination was divided by the corrected herbicide tolerance scores for the missense allele—wild-type combination. In case the knock-out allele has no effect on herbicide tolerance conferred by the missense allele, this ratio should be 1. In case the knock-out allele positively contributes to the herbicide tolerance conferred by the missense allele, this ratio should be higher than 1. The results for the contribution of the knock-out allele to herbicide tolerance conferred by the missense allele as calculated above are shown in table 8.

[1] = AHAS1 HETO112, AHAS3 WT, treatment C 20 g a.i./ha pre-planting, Location A
[2] = AHAS1 HETO112, AHAS3 WT, treatment C 20 g a.i./ha pre-planting, Location B
[3] = AHAS1 HETO112, AHAS3 WT, treatment D 30 g a.i./ha pre-planting, Location A
[4] = AHAS1 HETO112, AHAS3 WT, treatment D 30 g a.i./ha pre-planting, Location B
[5] = AHAS1 HETO112/AHAS3 HETO111, 10 g a.i./ha pre-planting (B), Location A
[6] = AHAS1 HETO112/AHAS3 HETO111, 10 g a.i./ha pre-planting (B), Location B
[7] = AHAS1 HETO112/AHAS3 HETO111, 20 g a.i./ha pre-planting (C), Location A
[8] = AHAS1 HETO112/AHAS3 HETO111, 20 g a.i./ha pre-planting (C), Location B
[9] = AHAS1 HETO112/AHAS3 HETO111, 30 g a.i./ha pre-planting (D), Location A
[10] = AHAS1 HETO112/AHAS3 HETO111, 30 g a.i./ha pre-planting (D), Location B
[11] = AHAS1 HETO112/AHAS3 WT, 10 g a.i./ha pre-planting (B), Location A
[12] = AHAS1 HETO112/AHAS3 WT, 10 g a.i./ha pre-planting (B), Location B
[13] = AHAS1 HETO112/AHAS3 WT, 20 g a.i./ha pre-planting (C), Location A
[14] = AHAS1 HETO112/AHAS3 WT, 20 g a.i./ha pre-planting (C), Location B
[15] = AHAS1 HETO112/AHAS3 WT, 30 g a.i./ha pre-planting (D), Location A
[16] = AHAS1 HETO112/AHAS3 WT, 30 g a.i./ha pre-planting (D), Location B
[17] = AHAS1 WT, AHAS3 HETO104, treatment B 10 g a.i./ha pre-planting, Location A
[18] = AHAS1 WT, AHAS3 HETO104, treatment B 10 g a.i./ha pre-planting, Location B
[19] = AHAS1 WT, AHAS3 HETO104, treatment C 20 g a.i./ha pre-planting, Location A
[20] = AHAS1 WT, AHAS3 HETO104, treatment C 20 g a.i./ha pre-planting, Location B
[21] = AHAS1 WT, AHAS3 HETO104, treatment D 30 g a.i./ha pre-planting, Location A
[22] = AHAS1 WT, AHAS3 HETO104, treatment D 30 g a.i./ha pre-planting, Location B

COC(=O)c1csc(C)c1S(=O)(=O)NC(=O)n1nc(OC)n(C)c1=O [thiencarbazone-methyl, methyl 4-[(4,5-dihydro-3-methoxy-4-methyl-5-oxo-1H-1,2,4-triazol-1-yl)carbonylsulfamoyl]-5-methylthiophene-3-carboxylate]
3.67: establishment (EST2) score, Av [10]
5.00: establishment (EST2) score, Av [8]
5.67: establishment (EST2) score, Av [5] | establishment (EST2) score, Av [6] | establishment (EST2) score, Av [9]
6.67: vigor2 (VIG2) score, Av [6] | vigor2 (VIG2) score, Av [9]
5.33: establishment (EST2) score, Av [7] | vigor2 (VIG2) score, Av [8] | vigor2 (VIG2) score, Av [10] | emergence (ERG) score Av (AHAS1 WT, AHAS3 HETO111 (HETO108+HETO111 series), treatment B 10 g a.i./ha pre-planting, Location A)
4.00: vigor1 (VIG1) score, Av [10]
1.67: establishment (EST2) score, Av [11] | establishment (EST2) score, Av [14]
1.33: establishment (EST1) score Av, 14 days after sowing [2] | vigor1 (VIG1) score, Av [12] | emergence (ERG) score Av [20]
2.00: emergence (ERG) score Av [17] | emergence (ERG) score Av [18]
2.33: establishment (EST1) score Av, 14 days after sowing (AHAS1 HETO112, AHAS3 WT, treatment B 10 g a.i./ha pre-planting, Location B) | establishment (EST1) score Av, 14 days after sowing [17] | establishment (EST1) score Av, 14 days after sowing [20]
2.67: establishment (EST2) score, Av [12]
3.33: establishment (EST1) score Av, 14 days after sowing [18]
6.33: vigor1 (VIG1) score, Av [5] | vigor2 (VIG2) score, Av [7]
7.33: vigor2 (VIG2) score, Av [5]
1.00: emergence (ERG) score Av [1] | establishment (EST1) score Av, 14 days after sowing [1] | emergence (ERG) score Av [2] | emergence (ERG) score Av [3] | establishment (EST1) score Av, 14 days after sowing [3] | emergence (ERG) score Av [4] | establishment (EST1) score Av, 14 days after sowing [4] | phytotoxicity (PPTOX) score, Av [11] | vigor1 (VIG1) score, Av [11] | vigor2 (VIG2) score, Av [11] | phytotoxicity (PPTOX) score, Av [12] | vigor2 (VIG2) score, Av [12] | establishment (EST2) score, Av [13] | phytotoxicity (PPTOX) score, Av [13] | vigor1 (VIG1) score, Av [13] | vigor2 (VIG2) score, Av [13] | phytotoxicity (PPTOX) score, Av [14] | vigor1 (VIG1) score, Av [14] | vigor2 (VIG2) score, Av [14] | establishment (EST2) score, Av [15] | phytotoxicity (PPTOX) score, Av [15] | vigor1 (VIG1) score, Av [15] | vigor2 (VIG2) score, Av [15] | establishment (EST2) score, Av [16] | phytotoxicity (PPTOX) score, Av [16] | vigor1 (VIG1) score, Av [16] | vigor2 (VIG2) score, Av [16] | emergence (ERG) score Av [19] | establishment (EST1) score Av, 14 days after sowing [19] | emergence (ERG) score Av [21] | establishment (EST1) score Av, 14 days after sowing [21] | emergence (ERG) score Av [22] | establishment (EST1) score Av, 14 days after sowing [22]
